Data set [1] has as its system grapes of the variety Flame Seedless. The format is in vivo. The text has this: Treatment (HBR) was twice applied to grapes of the variety Flame Seedless. Treatments consisted of either HBR or ProGibb (ProGibb 4%, a plant growth regulator commonly used on table grapes for berry thinning and/or increasing berry size). At the first application (Day 0) the grapes were approximately 3 mm in diameter. The second application was seven days later (Day 7) when the grapes were approximately 6 mm in diameter. The HBR was applied with a backpack mist blower at a rate if 100 gallons per acre. Grapes were evaluated for Cluster Color Rating and Cluster Color Intensity (Hue) on about Day 65 by comparing test subjects with the control of condition 1. The same data set was analyzed for berry weight, berry firmness, Brix units, and phytotoxicity.

Data set [2] has as its system grapes (var. Scarlet Royal). As to the kind of experiment: Experiment 2: HBR spray application on Scarlet Royal grapes. The format is in vivo. To be noted: for berry hue / cluster color / soluble solids: evaluations Days 54-97; for ripening responses: ethephon standard treatment (Day 45), versus untreated check. From the text:
Homobrassinolide (HBR) was applied on grapes (var. Scarlet Royal) at late bloom (Day 0), or at late bloom (Day 0) and again at approximately 1 week after berry set (Day 7). Grapes were approximately 3 mm in diameter at Day 0 and 6 mm in diameter at Day 7. HBR was applied at rates of 0.5 ppm/aiA, 1.0 ppm/aiA, and 2.0 ppm/aiA. Spray applications were made using a backpack mistblower to simulate commercial airblast applications at 100 gpa. Controls were an untreated group, and a group that received the standard treatment with Ethephon approximately two weeks after color break (Day 45). Evaluations were made at Days 54, 66, 75, 82, 90, and 97. All treated groups also received Latron B1956 which was added to each tank mix as a surfactant (0.125% v/v). Soluble solids, cluster color, and berry hue were enhanced by HBR and the ethephon standard treatment. […] Results are illustrated in Table 3 (FIG. 4).

In the next data set the test system is grapes. To be noted: Lenahan et al., 2006; cited from earlier work.
Where [3] appears, read: HBR on Day 0 at 2.5 ppm/aiA, versus control, evaluated about Day 65.
The mark [4] stands for this setting: two applications, or single application of 1.0 or 2.0 ppm/aiA, versus single application of 0.5 ppm/aiA HBR.

The values below come from US20200345008A1, “Increased grape yields with brassinosteroid application” (priority 2019, published 2020).

In the case of `CC[C@@H](C(C)C)C(O)C(O)[C@@H](C)[C@H]1CC[C@H]2[C@@H]3COC(=O)[C@H]4C[C@H](O)[C@H](O)C[C@]4(C)[C@H]3CC[C@]12C` (stereo in doubt) [HBR, homobrassinolide], the “degrees Brix of the grapes” value in data set [1] (HBR on Day 0) is on record as “tended to increase”. In addition, in data set [1] (setting [3]), the “color intensity per reddish cluster” value was “more intense color per reddish cluster than control” and the “percentage of clusters per plot that were noticeably reddish” value is “increased the percentage of clusters per plot that were noticeably reddish”. Moreover, in data set [1] (HBR treatment, versus control), the “color intensity within each identified reddish cluster” value was “increased the color intensity” and the “percentage of reddish grapes within each identified reddish cluster” value is on record as “increased the percentage of reddish grapes”. Further, in data set [1] (in vivo), the phytotoxicity result was “no observed phytotoxicity”. For the same compound, in data set [2] (Scarlet Royal), the berry hue result was “enhanced”, the cluster color result is “enhanced” and the soluble solids result was “enhanced”. In data set [2] (double spray of 2 ppm ai HBR, compared to the ethephon standard treatment), the “efficacy ranking of treatments” value is “most efficacious treatment”. Besides, in data set [2] (double spray of 2 ppm ai HBR), the ripening responses result was “significantly more effective than the untreated check”. Moreover, in data set [2] (in vivo), the crop injury result is reported as “No crop injury was observed”. In data set [2] (single spray timing treatments (0.5, 1.0, 2.0 ppm/aiA) versus untreated check), the rate response result is recorded as “positive rate response”. Moreover, in data set [2] (setting [4]), the hue entry is reported as “greater hue”; the “percentages of clusters of color” value was “increased percentages of clusters of color”; the “soluble solids and Brix degrees” value is “increased soluble solids and Brix degrees”.
`C=C1C[C@]23C[C@@]1(O)CC[C@H]2[C@@]12C=C[C@H](O)[C@@](C)(C(=O)O1)[C@H]2[C@@H]3C(=O)O` [GA3, gibberellic acid]: the firmness of grapes entry with grapes is on record as “increase firmness”.
Regarding `O=P(O)(O)CCCl` [ethephon, Ethephon, reference compound], in data set [2] (Scarlet Royal), the berry hue entry was “enhanced”, the cluster color result is listed as “enhanced” and the soluble solids entry is “enhanced”. For the same compound, the crop injury entry in data set [2] (all treatments, Scarlet Royal) is “No crop injury was observed”. In addition, the ripening responses entry in data set [2] (double spray of 2 ppm ai HBR) is given as “significantly more effective than the untreated check”.
